# Assays:
# liver X receptor alpha = molecular target: T1, liver X receptor alpha (Homo sapiens, UniProt Q13133); test: gene transactivation (luciferase reporter) assay in human embryonic kidney 293 cells, liver X receptor alpha; assay type: cell-based; conditions: 1 to 10 μM
# T1 sequence (Q13133 1-447): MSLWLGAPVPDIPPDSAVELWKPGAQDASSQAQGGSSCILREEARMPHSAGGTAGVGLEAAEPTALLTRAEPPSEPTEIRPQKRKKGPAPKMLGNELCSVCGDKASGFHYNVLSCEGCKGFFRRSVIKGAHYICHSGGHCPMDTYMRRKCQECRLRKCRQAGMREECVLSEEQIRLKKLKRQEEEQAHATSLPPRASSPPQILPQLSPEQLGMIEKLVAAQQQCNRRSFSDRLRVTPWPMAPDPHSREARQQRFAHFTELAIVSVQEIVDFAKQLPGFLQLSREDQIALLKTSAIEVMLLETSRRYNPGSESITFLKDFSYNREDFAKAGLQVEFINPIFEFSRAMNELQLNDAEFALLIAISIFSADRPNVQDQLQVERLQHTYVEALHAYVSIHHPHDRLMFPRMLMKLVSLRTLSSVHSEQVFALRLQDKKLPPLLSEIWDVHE
# T1 sequence (P19793 1-462 partner): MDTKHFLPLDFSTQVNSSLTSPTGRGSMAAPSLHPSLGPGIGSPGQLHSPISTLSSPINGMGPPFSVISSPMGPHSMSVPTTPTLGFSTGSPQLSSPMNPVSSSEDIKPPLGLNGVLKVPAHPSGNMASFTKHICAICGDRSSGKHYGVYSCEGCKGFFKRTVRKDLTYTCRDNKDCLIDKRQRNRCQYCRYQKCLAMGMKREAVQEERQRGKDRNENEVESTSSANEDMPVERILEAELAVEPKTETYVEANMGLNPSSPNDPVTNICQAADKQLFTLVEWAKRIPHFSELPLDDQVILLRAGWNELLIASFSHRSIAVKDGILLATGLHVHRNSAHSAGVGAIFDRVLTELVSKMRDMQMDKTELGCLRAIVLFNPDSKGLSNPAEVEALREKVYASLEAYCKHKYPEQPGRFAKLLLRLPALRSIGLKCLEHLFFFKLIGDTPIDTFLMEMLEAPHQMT
# Procedure: (§1) See, e.g., Song, C. et al., Steroids, 2000, 65, 423-427.
# (§2) Specifically, human embryonic kidney 293 cells were seeded into a 48-well culture plate at 10^5 cells per well in a Dulbecco's modified Eagle's medium (DMEM) supplemented with 10% fetal bovine serum. After incubation for 24 hours, the cells were transfected by the calcium phosphate coprecipitation method with 250 ng of a pGL3/UREluc reporter gene that consisted of three copies of AGGTCAagccAGGTCA fused to nucleotides −56 to +109 of the human c-fos promoter in front of the firefly luciferase gene in the plasmid basic pGL3 (Promega, Madison, Wis.), 40 ng pSG5/hRXRα, 40 ng pSG5/rUR or CMX/hliver X receptorα, 10 ng pSG5/hGrip1, 0.4 ng CMV/R-luc (transfection normalization reporter, Promega) and 250 ng carrier DNA per well. […]
# (§3) After incubation for another 12 to 24 hours, the cells were washed with phosphate buffer saline and then refed with DMEM supplemented with 4% delipidated fetal bovine serum. […] After incubation for another 24 to 48 hours, the cells were harvested and the luciferase activity was measured with a commercial kit (Promega Dual luciferase II) on a Monolight luminometer (Becton Dickenson, Mountain View, Calif.).
# [1] = molecular target: T2, liver X receptor beta (i.e., UR) (Rattus norvegicus, UniProt Q62755); test: gene transactivation (luciferase reporter) assay in human embryonic kidney 293 cells, liver X receptor beta (UR); assay type: cell-based; conditions: 1 to 10 μM
# T2 sequence (Q62755 1-446): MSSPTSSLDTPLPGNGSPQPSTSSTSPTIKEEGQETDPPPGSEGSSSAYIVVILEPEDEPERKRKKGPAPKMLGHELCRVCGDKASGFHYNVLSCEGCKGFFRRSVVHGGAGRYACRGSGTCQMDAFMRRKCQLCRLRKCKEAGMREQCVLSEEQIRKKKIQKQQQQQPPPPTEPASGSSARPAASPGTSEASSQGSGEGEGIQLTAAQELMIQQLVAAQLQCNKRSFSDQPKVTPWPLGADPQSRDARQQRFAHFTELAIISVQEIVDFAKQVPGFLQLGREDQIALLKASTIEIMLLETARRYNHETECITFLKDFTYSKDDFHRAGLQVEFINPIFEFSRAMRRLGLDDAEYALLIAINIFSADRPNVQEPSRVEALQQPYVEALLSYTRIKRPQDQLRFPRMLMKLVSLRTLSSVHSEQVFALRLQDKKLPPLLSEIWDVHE
# T2 sequence (P19793 1-462 partner): T1 sequence (P19793 1-462 partner)
# Procedure: as §1, §2, §3
SMILES,liver X receptor alpha agonistic activity (liver X receptor alpha),liver X receptor beta (UR) agonistic activity [1]
"CON(C)C(=O)CC[C@@H](C)[C@H]1CC[C@H]2[C@@H]3C[C@H](O)[C@@H]4C[C@H](O)CC[C@]4(C)[C@H]3CC[C@]12C [hypocholamide, N-methyl-N-methoxy-3α,6α-dihydroxy-5β-cholanoic acid-24-amide]",unexpectedly potent agonists,unexpectedly potent agonists
"CC(CCC(O)(C(F)(F)F)C(F)(F)F)C1CCC2C3CC(O)C4CC(O)CCC4(C)C3CCC12C (stereo not drawn) [hypocholaride, 3α,6α,24-trihydroxy-5β-24,24-di(trifluoromethyl)-cholestane]",unexpectedly potent agonists,unexpectedly potent agonists
